The source of these data is patent publication US10988477B2 (Merck Patent GmbH, priority 2018, dated 2021).

GCN2 kinase, sequence (Q9P2K8 whole entry): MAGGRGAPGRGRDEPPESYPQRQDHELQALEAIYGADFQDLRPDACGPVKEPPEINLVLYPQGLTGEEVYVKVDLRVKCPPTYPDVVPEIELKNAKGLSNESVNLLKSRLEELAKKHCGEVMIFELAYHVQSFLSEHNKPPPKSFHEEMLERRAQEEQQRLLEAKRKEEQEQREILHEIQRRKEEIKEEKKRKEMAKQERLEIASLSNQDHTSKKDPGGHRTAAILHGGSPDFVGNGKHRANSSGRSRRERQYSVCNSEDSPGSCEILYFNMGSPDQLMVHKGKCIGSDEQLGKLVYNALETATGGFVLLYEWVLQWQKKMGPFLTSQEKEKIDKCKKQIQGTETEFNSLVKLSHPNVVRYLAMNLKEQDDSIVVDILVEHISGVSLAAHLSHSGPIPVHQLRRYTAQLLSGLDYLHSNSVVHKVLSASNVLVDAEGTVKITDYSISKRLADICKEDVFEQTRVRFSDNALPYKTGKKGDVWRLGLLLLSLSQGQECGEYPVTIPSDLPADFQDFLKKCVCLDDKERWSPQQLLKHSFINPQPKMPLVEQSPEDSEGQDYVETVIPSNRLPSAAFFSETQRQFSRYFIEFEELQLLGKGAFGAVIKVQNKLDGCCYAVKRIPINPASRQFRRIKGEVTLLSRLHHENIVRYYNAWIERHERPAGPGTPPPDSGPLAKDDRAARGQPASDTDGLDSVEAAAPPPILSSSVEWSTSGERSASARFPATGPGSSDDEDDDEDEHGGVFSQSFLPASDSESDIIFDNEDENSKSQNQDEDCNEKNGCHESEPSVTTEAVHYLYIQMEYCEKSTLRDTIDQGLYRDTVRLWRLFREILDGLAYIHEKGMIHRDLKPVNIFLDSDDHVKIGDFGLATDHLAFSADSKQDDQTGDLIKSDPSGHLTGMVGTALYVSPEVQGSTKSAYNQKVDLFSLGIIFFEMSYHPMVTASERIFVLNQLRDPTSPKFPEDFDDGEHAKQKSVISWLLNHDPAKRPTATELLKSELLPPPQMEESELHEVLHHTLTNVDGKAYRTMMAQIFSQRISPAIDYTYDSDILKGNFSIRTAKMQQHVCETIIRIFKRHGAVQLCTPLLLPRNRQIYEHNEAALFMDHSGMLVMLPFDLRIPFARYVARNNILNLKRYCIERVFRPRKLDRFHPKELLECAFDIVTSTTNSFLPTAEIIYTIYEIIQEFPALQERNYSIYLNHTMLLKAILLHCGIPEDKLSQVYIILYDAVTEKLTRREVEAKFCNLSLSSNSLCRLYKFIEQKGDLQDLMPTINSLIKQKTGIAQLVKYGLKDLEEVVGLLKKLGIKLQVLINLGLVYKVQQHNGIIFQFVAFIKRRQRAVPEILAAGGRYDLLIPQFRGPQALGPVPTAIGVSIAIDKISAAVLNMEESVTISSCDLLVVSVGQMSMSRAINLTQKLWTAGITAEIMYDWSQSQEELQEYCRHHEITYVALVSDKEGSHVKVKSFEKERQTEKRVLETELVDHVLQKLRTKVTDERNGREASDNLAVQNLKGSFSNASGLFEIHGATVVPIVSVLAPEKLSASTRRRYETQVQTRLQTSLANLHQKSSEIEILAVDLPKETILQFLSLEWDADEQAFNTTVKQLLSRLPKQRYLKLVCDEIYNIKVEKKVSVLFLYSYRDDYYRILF

The test addresses GCN2 kinase (Homo sapiens, UniProt Q9P2K8). Kind of test: GCN2 enzyme inhibition assay (Transcreener ADP2 fluorescence polarization). It is filed as biochemical. The note with it: Enzyme activity for compounds of Formula IV; Ki(app), 280 μM ATP, 25° C. The method, boiled down: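 4 nM GCN2 + 200 μM (RS)7 + compound (0–8 μM), 10 min preinc.; start with ATP (280 μM final); 1 h, 25 °C; pH 7.5 Tris/NaCl/MgCl2/DTT; ADP FP readout; IC50, Ki(app) via tight-binding fit.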
Regarding `CC1CN(c2ccnc(-c3cnc4cnc(C#N)cn34)n2)C(C)C(c2cn[nH]c2)N1` (single isomer, unassigned) [IV-313, 3-(4-(2,5-Dimethyl-3-(1H-pyrazol-4-yl)piperazin-1-yl)pyrimidin-2-yl)imidazo[1,2-a]pyrazine-6-carbonitrile], the Ki was in the range of 100 to 1000 nM.

Consider `CC1CN(c2ccnc(-c3cnc4cnc(C#N)cn34)n2)C(C)C(c2cn[nH]c2)N1` (single isomer, unassigned) [IV-314, 3-(4-(2,5-Dimethyl-3-(1H-pyrazol-4-yl)piperazin-1-yl)pyrimidin-2-yl)imidazo[1,2-a]pyrazine-6-carbonitrile], for which the Ki was less than 10 nM. The figure for `CC1C(c2cn[nH]c2)OCCN1c1ccnc(-c2cnc3cnc(C(F)(F)F)cn23)n1` (single isomer, unassigned) [IV-315, 3-Methyl-2-(1H-pyrazol-4-yl)-4-(2-(6-(trifluoromethyl)imidazo[1,2-a]pyrazin-3-yl)pyrimidin-4-yl)morpholine] is 10 to 100 nM; for `CC1C(c2cn[nH]c2)OCCN1c1ccnc(-c2cnc3cnc(Cl)cn23)n1` (single isomer, unassigned) [IV-316, 4-(2-(6-Chloroimidazo[1,2-a]pyrazin-3-yl)pyrimidin-4-yl)-3-methyl-2-(1H-pyrazol-4-yl)morpholine] it is 100 to 1000 nM; for `CC1CN(c2nc(-c3cnc4cnc(C(F)(F)F)cn34)ncc2F)C(C)C(c2cn[nH]c2)N1` (single isomer, unassigned) [IV-324, 3-(4-(2,5-Dimethyl-3-(1H-pyrazol-4-yl)piperazin-1-yl)-5-fluoropyrimidin-2-yl)-6-(trifluoromethyl)imidazo[1,2-a]pyrazine] it is 10 to 100 nM.

`CC1C(c2cn[nH]c2)OCCN1c1ccnc(-c2cnc3cnc(Br)cn23)n1` (single isomer, unassigned) [IV-328, 4-(2-(6-Bromoimidazo[1,2-a]pyrazin-3-yl)pyrimidin-4-yl)-3-methyl-2-(1H-pyrazol-4-yl)morpholine] registered a Ki of less than 10 nM.

Take `CC1C(c2cn[nH]c2)OCCN1c1ccnc(-c2cnc3cnc(Br)cn23)n1` (single isomer, unassigned) [IV-329, 4-(2-(6-Bromoimidazo[1,2-a]pyrazin-3-yl)pyrimidin-4-yl)-3-methyl-2-(1H-pyrazol-4-yl)morpholine]: the Ki lay in the range of 10 to 100 nM. For `CC1CNC(c2cn[nH]c2)CN1c1ccnc(-c2cnc3cnc(C(F)(F)F)cn23)n1` (single isomer, unassigned) [IV-333, 3-(4-(2-Methyl-5-(1H-pyrazol-4-yl)piperazin-1-yl)pyrimidin-2-yl)-6-(trifluoromethyl)imidazo[1,2-a]pyrazine] the value was 10 to 100 nM; for `CC1CN(c2nc(-c3cnc4cnc(C(F)(F)F)cn34)ncc2F)CC(c2cn[nH]c2)O1` (single isomer, unassigned) [IV-334, 4-(5-Fluoro-2-(6-(trifluoromethyl)imidazo[1,2-a]pyrazin-3-yl)pyrimidin-4-yl)-2-methyl-6-(1H-pyrazol-4-yl)morpholine], 100 to 1000 nM. For `CC1CN(c2nc(-c3cnc4cnc(C(F)(F)F)cn34)ncc2F)CC(c2cn[nH]c2)O1` (single isomer, unassigned) [IV-335, 4-(5-Fluoro-2-(6-(trifluoromethyl)imidazo[1,2-a]pyrazin-3-yl)pyrimidin-4-yl)-2-methyl-6-(1H-pyrazol-4-yl)morpholine] the value was 10 to 100 nM; for `CC1NC(c2cn[nH]c2)C(C)N(c2ccnc(-c3cnc4cnc(C(F)(F)F)cn34)n2)C1C` (single isomer, unassigned) [IV-336, 6-(Trifluoromethyl)-3-(4-(2,3,6-trimethyl-5-(1H-pyrazol-4-yl)piperazin-1-yl)pyrimidin-2-yl)imidazo[1,2-a]pyrazine], 100 to 1000 nM; for `CC1NC(c2cn[nH]c2)C(C)N(c2ccnc(-c3cnc4cnc(C(F)(F)F)cn34)n2)C1C` (single isomer, unassigned) [IV-337, 6-(Trifluoromethyl)-3-(4-(2,3,6-trimethyl-5-(1H-pyrazol-4-yl)piperazin-1-yl)pyrimidin-2-yl)imidazo[1,2-a]pyrazine], less than 10 nM.

Regarding `CS(=N)(=O)CC1CCCN(c2ccnc(-c3cnc4cnc(C(F)F)cn34)n2)C1` (single isomer, unassigned) [IV-338, ((1-(2-(6-(Difluoromethyl)imidazo[1,2-a]pyrazin-3-yl)pyrimidin-4-yl)piperidin-3-yl)methyl)(imino)(methyl)-λ^6-sulfanone], the Ki lay in the range of 100 to 1000 nM. The figure for `CS(=N)(=O)CC1CCCN(c2ccnc(-c3cnc4cnc(C(F)F)cn34)n2)C1` (single isomer, unassigned) [IV-339, ((1-(2-(6-(Difluoromethyl)imidazo[1,2-a]pyrazin-3-yl)pyrimidin-4-yl)piperidin-3-yl)methyl)(imino)(methyl)-λ^6-sulfanone] is 100 to 1000 nM. With `CC1CC(CS(C)(=N)=O)C(C)N(c2ccnc(-c3cnc4cnc(C(F)F)cn34)n2)C1` (single isomer, unassigned) [IV-367, ((1-(2-(6-(Difluoromethyl)imidazo[1,2-a]pyrazin-3-yl)pyrimidin-4-yl)-2,5-dimethylpiperidin-3-yl)methyl)(imino)(methyl)-λ^6-sulfanone], the Ki was 100 to 1000 nM. In turn, `CC1CN(c2nccc(-c3cnc4cnc(C(F)(F)F)cn34)n2)C(C)C(c2cn[nH]c2)N1` (single isomer, unassigned) [IV-370, 3-(2-(2,5-Dimethyl-3-(1H-pyrazol-4-yl)piperazin-1-yl)pyrimidin-4-yl)-6-(trifluoromethyl)imidazo[1,2-a]pyrazine] returned a Ki of 100 to 1000 nM. The figure for `CC1CN(c2ccnc(-c3cnc4cnc(C(F)(F)F)cn34)n2)CC(c2cn[nH]c2C(F)(F)F)N1` (single isomer, unassigned) [IV-475, 3-(4-(3-Methyl-5-(5-(trifluoromethyl)-1H-pyrazol-4-yl)piperazin-1-yl)pyrimidin-2-yl)-6-(trifluoromethyl)imidazo[1,2-a]pyrazine] is 10 to 100 nM; for `Cc1n[nH]c(C)c1C1CCCN(c2ccnc(-c3cnc4cnc(C(F)(F)F)cn34)n2)C1` (single isomer, unassigned) [IV-476, 3-(4-(3-(3,5-Dimethyl-1H-pyrazol-4-yl)piperidin-1-yl)pyrimidin-2-yl)-6-(trifluoromethyl)imidazo[1,2-a]pyrazine] it is less than 10 nM; for `Cc1n[nH]c(C)c1C1CCCN(c2ccnc(-c3cnc4cnc(C(F)(F)F)cn34)n2)C1` (single isomer, unassigned) [IV-477, 3-(4-(3-(3,5-Dimethyl-1H-pyrazol-4-yl)piperidin-1-yl)pyrimidin-2-yl)-6-(trifluoromethyl)imidazo[1,2-a]pyrazine] it is 10 to 100 nM. For `CC1CC(C(N)=O)C(C)N(c2ccnc(-c3cnc4cnc(C(F)(F)F)cn34)n2)C1` (single isomer, unassigned) [IV-481, 2,5-Dimethyl-1-(2-(6-(trifluoromethyl)imidazo[1,2-a]pyrazin-3-yl)pyrimidin-4-yl)piperidine-3-carboxamide] the value was 10 to 100 nM. The figure for `CC1C(C(N)=O)CCCN1c1ccnc(-c2cnc3cnc(C(F)(F)F)cn23)n1` (single isomer, unassigned) [IV-498, 2-Methyl-1-(2-(6-(trifluoromethyl)imidazo[1,2-a]pyrazin-3-yl)pyrimidin-4-yl)piperidine-3-carboxamide] is 100 to 1000 nM.
